Results as given in article PMC4310727 (Journal of enzyme inhibition and medicinal chemistry, 2012).

Biological target: T1, Glutaredoxin-1 (GRX-1) (Homo sapiens, UniProt P35754)
T1 sequence (P35754 2-106): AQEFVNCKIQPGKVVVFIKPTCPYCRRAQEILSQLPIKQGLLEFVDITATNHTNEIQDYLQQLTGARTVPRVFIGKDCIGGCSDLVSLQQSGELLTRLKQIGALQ
Assay: time-dependent inactivation kinetics
Assay type: biochemical
Conditions: read-out: Ki

KI (inactivation): 91.3 µM
SMILES: CC(=O)N[C@@H](CSC(=S)Nc1ccc(NC(=S)SC[C@H](NC(C)=O)C(=O)O)cc1)C(=O)O [2-AAPA, 2-acetylamino-3-[4-(2-acetylamino-2-carboxyethyl-sulfanylthiocarbonylamino)phenylthiocarbamoylsulfanyl]propionic acid]
